Assay results from publication PMC10803328 (Scientific Reports, 2024).

What was measured:
[1] = In vitro stability in rat brain homogenate, whole blood and plasma; assay type: in vitro ADME
Description: In vitro stability was calculated by dividing the relative composition of the blood or brain homogenate determined with radio-HPLC by the initial radiochemical purity of the radioligand. […] The mixture was incubated at room temperature for 10 min and then processed exactly as described previously. The ultrafiltration components that contained high radioactivity were allowed time for radioactivity decay to within the optimal range of the γ-counter before they were counted again.
Five milliliters of anticoagulated blood (STD-A) and brain (1.8 g) were harvested from a wild-type rat (~ 450 g) and used in the in vitro assays. The brains were immediately weighed and homogenized with twice their weights (3.6 mL) of ice cold 0.9% NaCl solution. Plasmas were separated from whole blood via centrifugation. […] Following incubation, aliquots (450 µL) were removed for radio-analysis and processed as detailed above for radio-HPLC analysis.
Anticoagulated blood (STD-A; 5 mL) and brain (1.8 g) were harvested from a wild-type rat (~ 450 g) and used for the in vitro assays. The brains were immediately weighed and homogenized with twice their weights (3.6 mL) of ice-cold 0.9% saline. Plasma was separated from whole blood via centrifugation. […] Aliquots (450 µL) were then removed for radio analysis and processed as detailed above for radio-HPLC analysis.

[2] = test system: efflux transporters (P-gp and BCRP); test: PET imaging in wild-type and dual efflux transporter knockout mice; assay type: in vivo, mouse
Description: All PET imaging studies were performed with a Mediso LFER 150 preclinical scanner (nanoScan PET/CT). Brain and brain region radioactivity uptake was expressed by standardized uptake value (SUV) which normalizes for injected radioactivity and monkey body weight, as follows: SUV = [(% injected dose per g tissue) × body weight in g]/100.
Radioligand was injected intravenously via a tail vein catheter followed by PET imaging for 90 min. Whole brain uptake in SUV was compared between wild type and knockout mice.

[3] = in vitro incubation at 37 °C, rat

Question: With `[11CH3]n1c(=O)cnc2cc3c(cc21)C1CNCC3C1` (centres unmarked) [[^11C]uPSEM792] as the molecule, how does the “in vitro stability in homogenized non-perfused rat brain” value ([1]; 30 min at 37 °C) read?
Answer: 94%

Question: And the “in vitro stability in rat plasma” value ([1]; 30 min at 37 °C)?
Answer: 85.4%

Question: What about the “in vitro stability in rat whole blood” value ([1]; 30 min at 37 °C) of the same molecule?
Answer: 83.8%

Question: What about the “HPLC Composition (%), in vitro fresh rat brain” value ([1]; in vitro incubation at 37 °C) of the same molecule?
Answer: 92%

Question: And the “HPLC Composition (%), in vitro plasma” value [1, 3]?
Answer: 83%

Question: What about the “HPLC Composition (%), in vitro whole blood” value [1, 3] of the same molecule?
Answer: 82%

Question: And the “substrate for efflux transporters in vivo” value ([2]; dual P-gp and BCRP knockout vs wild-type mice)?
Answer: substrate for efflux transporters in vivo

Question: What about the “early peak brain radioactivity uptake” value ([2]; dual efflux transporter (P-gp and BCRP) knockout mice, i.v.) of the same molecule?
Answer: ~ 0.7 SUV
